According to US9994547B2, “Heteroarylamide inhibitors of TBK1” (Takeda Pharmaceutical Company Limited, priority 2014, dated 2018):

biological target: Full length human TBK1 (Homo sapiens (Human), UniProt Q9UHD2); experiment: Inhibition of TBK1 Enzyme (Example A); assay type: biochemical; details: -log(IC50), IC50 molar; 3 nM TBK1, 25 μM ATP, 60 min RT
Protocol: Full length human TBK1 with an N-terminal His-tag was cloned into the pFastBacl vector and was transfected into Sf9 cells. 72 hours later the virus was harvested and amplified through two additional rounds of infections. Then 400 mL of the resulting virus stock was used to infect 10 L of Sf9 cells at a density of 2×10^6 cells/mL. Cell pellets were harvested 48 hours post infection and were lysed by freeze-thaw, homogenization and sonication in binding buffer (25 mM Tris pH7.6, 1 M NaCl, 10 mM imidazole, 0.5 mM TCEP) plus 0.1% Triton X-100 and complete protease inhibitor cocktail. The lysate was spun and the supernatant was purified with a HisTrap FF crude and a Superdex 200 pg column.
TBK1 inhibition is determined using a 384 well plate format in buffer containing 20 mM Hepes, pH 7.4, 10 mM MgCl2, 1 mM EDTA, 0.01% Brij-L23, 1 mM DTT. Each test compound is prepared in DMSO using 2.5-fold serial dilutions for 11 data points, which are added to the buffer so that each dilution contains 1% DMSO. To each well is added 2 μL of 1 μM 5FAM-DRHDSGLDSMKDE-NH2 (in buffer), 2 μL of diluted test compound (1% DMSO in buffer), and 5 μL of 3 nM TBK1 and 25 μM ATP (in buffer). The reaction mixture is incubated at RT for 60 min, and quenched by adding 20 mM Hepes, pH 7.4, 10 mM MgCl2, 1 mM EDTA, 0.01% Brij-L23, 1 mM DTT+25 mM EDTA. To quantify the fluorescent-labeled substrate and product following reaction, the test plate is loaded on a Caliper LC-3000, which measures percent of conversion by microfluidic-based separation. Corresponding IC50 values are calculated by non-linear curve fitting of the compound concentrations and percent of inhibition to the standard IC50 equation and reported as pIC50, i.e., −log(IC50), where IC50 is the molar concentration.

Sequence of Full length human TBK1 (Q9UHD2 whole entry): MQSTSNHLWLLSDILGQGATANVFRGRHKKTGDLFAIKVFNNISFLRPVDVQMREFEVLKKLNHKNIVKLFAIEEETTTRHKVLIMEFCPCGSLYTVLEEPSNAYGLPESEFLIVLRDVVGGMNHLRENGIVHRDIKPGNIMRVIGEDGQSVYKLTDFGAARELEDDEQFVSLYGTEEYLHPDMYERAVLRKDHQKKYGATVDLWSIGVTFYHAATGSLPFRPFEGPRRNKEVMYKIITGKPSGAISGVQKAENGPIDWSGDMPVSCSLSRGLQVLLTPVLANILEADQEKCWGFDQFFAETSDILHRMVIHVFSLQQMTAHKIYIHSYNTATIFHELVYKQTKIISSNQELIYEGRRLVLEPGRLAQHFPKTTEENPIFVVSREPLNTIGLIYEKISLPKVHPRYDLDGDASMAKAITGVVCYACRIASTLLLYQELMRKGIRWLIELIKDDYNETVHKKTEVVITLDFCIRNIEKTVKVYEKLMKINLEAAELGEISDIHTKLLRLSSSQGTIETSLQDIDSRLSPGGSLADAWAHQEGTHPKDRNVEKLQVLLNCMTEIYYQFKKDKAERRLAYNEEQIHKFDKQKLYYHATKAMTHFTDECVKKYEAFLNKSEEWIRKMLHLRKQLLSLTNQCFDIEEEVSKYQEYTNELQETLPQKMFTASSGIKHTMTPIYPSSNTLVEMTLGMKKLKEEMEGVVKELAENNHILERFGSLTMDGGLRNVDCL

SMILES | TBK1 Inhibition (pIC50)
C[C@H](Nc1cc(-c2cnc(NC(=O)C3CC3)cn2)cnc1C#N)C(=O)N(C)c1cccnc1 [Example 74, (S)-N-(5-(6-cyano-5-((1-(methyl(pyridin-3-yl)amino)-1-oxopropan-2-yl)amino)pyridin-3-yl)pyrazin-2-yl)cyclopropanecarboxamide] | 5.5
CC(Nc1cc(-c2cnc(NC(=O)C3CC3)cn2)cnc1C#N)C(=O)N(C)CC(F)(F)F (centres unmarked) [Example 41, N-(5-(6-cyano-5-((1-(methyl(2,2,2-trifluoroethyl)amino)-1-oxopropan-2-yl)amino)pyridin-3-yl)pyrazin-2-yl)cyclopropanecarboxamide] | 7.8
CC1CC1C(=O)Nc1cnc(-c2cnc(C#N)c(N[C@@H](C)C(=O)N(C)CC(F)F)c2)cn1 (stereo partly drawn) [Example 86, N-(5-(6-cyano-5-(((S)-1-((2,2-difluoroethyl)(methyl)amino)-1-oxopropan-2-yl)amino)pyridin-3-yl)pyrazin-2-yl)-2-methylcyclopropanecarboxamide] | 8.4
CN(CC(F)F)C(=O)[C@H](CO)Nc1cc(-c2cnc(NC(=O)C3CC3)cn2)cnc1C#N [Example 58, (S)-N-(5-(6-cyano-5-((1-((2,2-difluoroethyl)(methyl)amino)-3-hydroxy-1-oxopropan-2-yl)amino)pyridin-3-yl)pyrazin-2-yl)cyclopropanecarboxamide] | 7.3
CC(Nc1cc(-c2cnc(NC(=O)C3CC3)cn2)cnc1C#N)C(=O)N(C)CC(F)F (centres unmarked) [Example 46, N-(5-(6-cyano-5-((1-((2,2-difluoroethyl)(methyl)amino)-1-oxopropan-2-yl)amino)pyridin-3-yl)pyrazin-2-yl)cyclopropanecarboxamide] | 8.0
CCC(Nc1cc(-c2cnc(NC(=O)C3CC3)cn2)cnc1C#N)C(=O)N(C)CCO (centres unmarked) [Example 35, N-(5-(6-cyano-5-((1-((2-hydroxyethyl)(methyl)amino)-1-oxobutan-2-yl)amino)pyridin-3-yl)pyrazin-2-yl)cyclopropanecarboxamide] | 6.9
C[C@H](Nc1cc(-c2cnc(NC(=O)C3CC3)cn2)cnc1C#N)C(=O)N1CCOC[C@@H]1C [Example 91, N-(5-(6-cyano-5-(((S)-1-((S)-3-methylmorpholino)-1-oxopropan-2-yl)amino)pyridin-3-yl)pyrazin-2-yl)cyclopropanecarboxamide] | 7.7
C[C@H](Nc1cc(-c2cnc(NC(=O)C3CC3)cn2)cnc1C#N)C(=O)N(C)CC1CC1 [Example 73, (S)-N-(5-(6-cyano-5-((1-((cyclopropylmethyl)(methyl)amino)-1-oxopropan-2-yl)amino)pyridin-3-yl)pyrazin-2-yl)cyclopropanecarboxamide] | 7.0
CC[C@H](Nc1cc(-c2cnc(NC(=O)C3CC3)cn2)cnc1C#N)C(=O)N(C)CCO [Example 70, (S)-N-(5-(6-cyano-5-((1-((2-hydroxyethyl)(methyl)amino)-1-oxobutan-2-yl)amino)pyridin-3-yl)pyrazin-2-yl)cyclopropanecarboxamide] | 7.1
CC[C@H](Nc1cc(-c2cnc(NC(=O)C3CC3)cn2)cnc1C#N)C(=O)NCC(F)F [Example 120, (S)-N-(5-(6-cyano-5-((1-((2,2-difluoroethyl)amino)-1-oxobutan-2-yl)amino)pyridin-3-yl)pyrazin-2-yl)cyclopropanecarboxamide] | 7.2

The next lines start with the values.

TBK1 Inhibition (pIC50) | SMILES
7.3 | N#Cc1ccc(-c2cnc(NC(=O)C3CC3)cn2)cc1NCC(=O)N1CCCC1 [Example 125, N-(5-(4-cyano-3-((2-oxo-2-(pyrrolidin-1-yl)ethyl)amino)phenyl)pyrazin-2-yl)cyclopropanecarboxamide]
6.5 | N#Cc1ncc(-c2cnc(NC(=O)C3CC3)cn2)cc1NCC(=O)N1CCOC(C(F)(F)F)C1 (centres unmarked) [Example 100, N-(5-(6-cyano-5-((2-oxo-2-(2-(trifluoromethyl)morpholino)ethyl)amino)pyridin-3-yl)pyrazin-2-yl)cyclopropanecarboxamide]
6.9 | N#Cc1ccc(-c2cnc(NC(=O)C3CC3)cn2)cc1NCC(=O)N1CCC(O)C1 (centres unmarked) [Example 27, N-(5-(4-cyano-3-((2-(3-hydroxypyrrolidin-1-yl)-2-oxoethyl)amino)phenyl)pyrazin-2-yl)cyclopropanecarboxamide]
7.3 | CC(CO)N(C)C(=O)CNc1cc(-c2cnc(NC(=O)C3CC3)cn2)ccc1C#N (centres unmarked) [Example 133, N-(5-(4-cyano-3-((2-((1-hydroxypropan-2-yl)(methyl)amino)-2-oxoethyl)amino)phenyl)pyrazin-2-yl)cyclopropanecarboxamide]
7.3 | N#Cc1ncc(-c2cnc(NC(=O)C3CC3)cn2)cc1NCC(=O)N1CCC1C(F)(F)F (centres unmarked) [Example 94, N-(5-(6-cyano-5-((2-oxo-2-(2-(trifluoromethyl)azetidin-1-yl)ethyl)amino)pyridin-3-yl)pyrazin-2-yl)cyclopropanecarboxamide]
6.9 | N#Cc1ncc(-c2cnc(NC(=O)C3CC3)cn2)cc1NCC(=O)N1CCOC[C@@H]1CF [Example 75, (R)-N-(5-(6-cyano-5-((2-(3-(fluoromethyl)morpholino)-2-oxoethyl)amino)pyridin-3-yl)pyrazin-2-yl)cyclopropanecarboxamide]
8.2 | CN(C)C(=O)[C@H](CC(F)F)Nc1cc(-c2cnc(NC(=O)C3CC3)cn2)ccc1C#N [Example 34, (S)-N-(5-(4-cyano-3-((1-(dimethylamino)-4,4-difluoro-1-oxobutan-2-yl)amino)phenyl)pyrazin-2-yl)cyclopropanecarboxamide]
7.6 | CN(C)C(=O)[C@H](CO)Nc1cc(-c2cnc(NC(=O)C3CC3)cn2)ccc1C#N [Example 136, (S)-N-(5-(4-cyano-3-((1-(dimethylamino)-3-hydroxy-1-oxopropan-2-yl)amino)phenyl)pyrazin-2-yl)cyclopropanecarboxamide]
7.0 | N#Cc1ncc(-c2cnc(NC(=O)C3CC3)cn2)cc1NCC(=O)N1CCS(=O)(=O)C1 [Example 140, N-(5-(6-cyano-5-((2-(1,1-dioxidothiazolidin-3-yl)-2-oxoethyl)amino)pyridin-3-yl)pyrazin-2-yl)cyclopropanecarboxamide]
6.3 | C[C@H](Nc1cc(-c2cnc(NC(=O)C3CC3)cn2)ccc1C#N)C(=O)NCCO [Example 13, (S)-N-(5-(4-cyano-3-((1-((2-hydroxyethyl)amino)-1-oxopropan-2-yl)amino)phenyl)pyrazin-2-yl)cyclopropanecarboxamide]
7.5 | CN(C)C(=O)C(CO)Nc1cc(-c2cnc(NC(=O)C3CC3)cn2)ccc1C#N (centres unmarked) [Example 18, N-(5-(4-cyano-3-((1-(dimethylamino)-3-hydroxy-1-oxopropan-2-yl)amino)phenyl)pyrazin-2-yl)cyclopropanecarboxamide]
5.9 | CN(C)C(=O)[C@@H](CC(F)F)Nc1cc(-c2cnc(NC(=O)C3CC3)cn2)ccc1C#N [Example 33, (R)-N-(5-(4-cyano-3-((1-(dimethylamino)-4,4-difluoro-1-oxobutan-2-yl)amino)phenyl)pyrazin-2-yl)cyclopropanecarboxamide]
7.2 | CN(C)C(=O)CNc1cc(-c2cnc(NC(=O)C3CC3)cn2)ccc1C#N [Example 123, N-(5-(4-cyano-3-((2-(dimethylamino)-2-oxoethyl)amino)phenyl)pyrazin-2-yl)cyclopropanecarboxamide]
